Test results published in patent US7132505B1, “Polypeptide inhibiting a proton-gated Na+ channel, a nucleic acid coding for such polypeptide and a method of manufacturing an ASIC1a channel blocker” (Centre National de la Recherche Scientifique - CNRS, dated 2006).
No end group written: not given here.

Assays:
[1] = molecular target: T1, ASIC1a channel (Rattus norvegicus, UniProt P55926); settings: read-out: IC50 for block of ASIC1a channel; cited from earlier work
T1 sequence (P55926 1-526): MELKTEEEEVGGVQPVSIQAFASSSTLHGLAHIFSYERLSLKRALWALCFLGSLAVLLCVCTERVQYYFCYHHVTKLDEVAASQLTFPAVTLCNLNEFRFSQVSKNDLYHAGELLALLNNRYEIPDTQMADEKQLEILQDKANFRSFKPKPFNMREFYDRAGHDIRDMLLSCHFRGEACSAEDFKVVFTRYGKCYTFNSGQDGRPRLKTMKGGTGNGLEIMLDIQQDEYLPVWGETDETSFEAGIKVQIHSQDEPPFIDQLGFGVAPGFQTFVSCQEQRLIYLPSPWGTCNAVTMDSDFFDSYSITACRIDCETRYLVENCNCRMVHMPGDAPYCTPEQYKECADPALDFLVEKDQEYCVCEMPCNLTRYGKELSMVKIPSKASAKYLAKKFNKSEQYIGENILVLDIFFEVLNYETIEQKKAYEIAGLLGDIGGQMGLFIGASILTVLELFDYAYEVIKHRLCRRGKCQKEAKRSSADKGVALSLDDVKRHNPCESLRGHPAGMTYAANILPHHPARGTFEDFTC

[2] = test system: ASIC1a, ASIC1b, ASIC2a, and ASIC3; settings: cited from earlier work
[3] = molecular target: T1, ASIC1a channel; test: Amiloride block of ASIC1a channel; format: cell-based; settings: IC50 10 μM versus 0.9 nM
[4] = molecular target: ASIC1a channel (homomultimer)
[5] = molecular target: T2, native PcTX1-sensitive H+-gated channel of rat dorsal root ganglion neurons (suggested by the filing to be a … (rat, UniProt P55926)); test: cell-based or functional assay
T2 sequence: T1 sequence (P55926 1-526)

[6] = molecular target: ASIC1a channel (homomultimer); remark: listed apart in the source

N=C(N)NC(=O)c1nc(Cl)c(N)nc1N [amiloride]
IC50 [1]: 10 µM | block of transient current generated by ASIC1a, ASIC1b, ASIC2a, and ASIC3 [2]: blocks all transient expression of current | affinity for ASIC1a relative to PcTX1 (fold lower) [3]: 10^4

crude Psalmopoeus cambridgei venom (pool or library)
ASIC1a current in Xenopus oocytes [4]: 90%

B1: Psalmotoxin 1 (PcTX1) (peptide)
peptide: EDCIPKWKGCVNRHGDCCEGLECWKRRRSFEVCVPKTPKT-OH
modifications: disulfide (positions not given here)
IC50 of inhibition of the H+-gated current in the PcTX1-sensitive population of DRG neurons [5]: 0.0007 µM | IC50 of block of the ASIC1a current recorded at pH 6 in Xenopus oocytes [6]: 0.9 nM
